Calls of active or inactive are those of the source.
Key:
[1] = molecular target: T1, Sentrin-specific protease 8 (Homo sapiens, UniProt Q96LD8); test: SENP8 protease inhibitors, SAR follow-up, biochemical, luminescence (AID 504501); assay type: functional
T1 sequence (Q96LD8 whole entry): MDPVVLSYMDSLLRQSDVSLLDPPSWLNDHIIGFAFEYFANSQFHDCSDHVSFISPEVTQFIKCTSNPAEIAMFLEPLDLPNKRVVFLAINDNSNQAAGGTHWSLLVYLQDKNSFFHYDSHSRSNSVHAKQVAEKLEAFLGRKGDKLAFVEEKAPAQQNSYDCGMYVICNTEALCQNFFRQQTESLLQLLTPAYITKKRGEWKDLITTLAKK

[2] = molecular target: T2, Caspase-3 (Homo sapiens, UniProt P42574); test: SAR Analysis of small molecule inhibitors of Sentrin-specific proteases (SENPs) using a Caspase-3 Selectivity assay. [Related pubchem assays (depositor defined):AID2540, AID2599, AID434973, AID489001]; assay type: functional
T2 sequence (P42574 whole entry): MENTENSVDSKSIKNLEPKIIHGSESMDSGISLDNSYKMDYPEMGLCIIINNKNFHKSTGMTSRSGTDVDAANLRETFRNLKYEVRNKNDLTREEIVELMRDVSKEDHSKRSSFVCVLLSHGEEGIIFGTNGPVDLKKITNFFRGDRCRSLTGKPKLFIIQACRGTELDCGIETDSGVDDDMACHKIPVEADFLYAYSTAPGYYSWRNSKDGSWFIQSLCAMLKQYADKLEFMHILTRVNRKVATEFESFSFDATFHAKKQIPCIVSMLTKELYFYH

[3] = molecular target: T3, Sentrin-specific protease 6 (Homo sapiens, UniProt Q9GZR1); test: SAR Analysis of small molecule inhibitors of Sentrin-specific protease 6 (SENP6) using a Luminescent assay. [Related pubchem assays (depositor defined):AID2582, AID2599]; assay type: functional
T3 sequence (Q9GZR1 whole entry): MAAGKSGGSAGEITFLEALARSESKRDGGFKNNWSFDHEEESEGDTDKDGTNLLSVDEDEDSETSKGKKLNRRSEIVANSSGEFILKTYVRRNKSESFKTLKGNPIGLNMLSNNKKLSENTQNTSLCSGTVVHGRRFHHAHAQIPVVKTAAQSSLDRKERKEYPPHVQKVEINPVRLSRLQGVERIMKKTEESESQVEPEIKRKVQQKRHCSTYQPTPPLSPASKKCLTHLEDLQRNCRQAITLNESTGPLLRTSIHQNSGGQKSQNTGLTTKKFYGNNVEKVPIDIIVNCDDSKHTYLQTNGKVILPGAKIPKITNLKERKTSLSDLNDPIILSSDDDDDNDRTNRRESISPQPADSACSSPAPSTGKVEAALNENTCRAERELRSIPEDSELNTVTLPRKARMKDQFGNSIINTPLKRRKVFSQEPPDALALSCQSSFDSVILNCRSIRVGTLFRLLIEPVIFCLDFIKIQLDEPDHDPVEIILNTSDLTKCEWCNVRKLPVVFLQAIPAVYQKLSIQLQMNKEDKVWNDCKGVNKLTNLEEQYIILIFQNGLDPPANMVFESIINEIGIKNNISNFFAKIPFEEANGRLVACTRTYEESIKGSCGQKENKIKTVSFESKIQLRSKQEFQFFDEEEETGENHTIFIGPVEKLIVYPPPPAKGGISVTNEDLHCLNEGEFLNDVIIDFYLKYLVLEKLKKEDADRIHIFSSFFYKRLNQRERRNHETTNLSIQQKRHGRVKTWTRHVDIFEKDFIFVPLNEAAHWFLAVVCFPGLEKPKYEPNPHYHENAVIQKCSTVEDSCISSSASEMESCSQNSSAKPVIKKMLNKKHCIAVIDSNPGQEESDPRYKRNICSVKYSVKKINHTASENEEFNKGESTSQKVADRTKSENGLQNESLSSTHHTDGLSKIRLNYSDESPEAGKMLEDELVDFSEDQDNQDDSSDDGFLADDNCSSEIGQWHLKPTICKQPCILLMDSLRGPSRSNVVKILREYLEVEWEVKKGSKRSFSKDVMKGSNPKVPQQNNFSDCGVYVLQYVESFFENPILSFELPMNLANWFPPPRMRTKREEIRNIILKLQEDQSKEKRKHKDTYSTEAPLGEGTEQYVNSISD

[4] = molecular target: T4, Sentrin-specific protease 7 (Homo sapiens, UniProt Q9BQF6); test: SENP7 protease inhibitors, SAR follow-up, biochemical, luminescence (AID 504497); assay type: functional
T4 sequence (Q9BQF6 whole entry): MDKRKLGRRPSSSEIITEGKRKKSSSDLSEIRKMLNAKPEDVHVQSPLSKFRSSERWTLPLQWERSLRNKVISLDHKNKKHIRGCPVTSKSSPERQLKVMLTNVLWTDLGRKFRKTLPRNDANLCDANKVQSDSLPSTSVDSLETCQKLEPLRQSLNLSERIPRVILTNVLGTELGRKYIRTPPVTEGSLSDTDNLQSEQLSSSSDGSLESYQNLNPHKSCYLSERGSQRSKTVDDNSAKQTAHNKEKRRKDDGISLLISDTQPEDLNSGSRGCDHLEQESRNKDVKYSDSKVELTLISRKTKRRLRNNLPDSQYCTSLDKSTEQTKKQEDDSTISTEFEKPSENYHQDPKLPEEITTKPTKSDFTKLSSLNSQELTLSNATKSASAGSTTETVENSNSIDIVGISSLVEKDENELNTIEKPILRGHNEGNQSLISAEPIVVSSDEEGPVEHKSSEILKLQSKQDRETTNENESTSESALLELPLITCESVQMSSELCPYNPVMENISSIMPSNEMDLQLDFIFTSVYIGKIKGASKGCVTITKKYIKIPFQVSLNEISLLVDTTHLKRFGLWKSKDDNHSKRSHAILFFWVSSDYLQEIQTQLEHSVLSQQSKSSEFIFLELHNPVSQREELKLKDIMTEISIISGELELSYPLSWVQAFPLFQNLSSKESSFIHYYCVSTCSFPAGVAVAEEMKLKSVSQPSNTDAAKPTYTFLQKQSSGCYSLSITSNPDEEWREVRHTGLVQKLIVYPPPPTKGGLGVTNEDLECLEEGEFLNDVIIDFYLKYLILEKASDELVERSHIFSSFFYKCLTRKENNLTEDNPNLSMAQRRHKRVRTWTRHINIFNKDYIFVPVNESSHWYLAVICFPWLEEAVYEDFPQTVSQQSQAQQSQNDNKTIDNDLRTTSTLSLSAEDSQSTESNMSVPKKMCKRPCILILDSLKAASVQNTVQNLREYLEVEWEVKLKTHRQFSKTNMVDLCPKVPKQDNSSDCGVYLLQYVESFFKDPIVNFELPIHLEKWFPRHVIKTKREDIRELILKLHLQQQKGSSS

[5] = molecular target: Voltage-gated inwardly rectifying potassium channel KCNH2 (Homo sapiens, UniProt Q12809); settings: Potency;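 further: confirmatory quantitative high-throughput screen measuring inhibition of hERG channel activity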
Sequence of Voltage-gated inwardly rectifying potassium channel KCNH2 (Q12809 whole entry): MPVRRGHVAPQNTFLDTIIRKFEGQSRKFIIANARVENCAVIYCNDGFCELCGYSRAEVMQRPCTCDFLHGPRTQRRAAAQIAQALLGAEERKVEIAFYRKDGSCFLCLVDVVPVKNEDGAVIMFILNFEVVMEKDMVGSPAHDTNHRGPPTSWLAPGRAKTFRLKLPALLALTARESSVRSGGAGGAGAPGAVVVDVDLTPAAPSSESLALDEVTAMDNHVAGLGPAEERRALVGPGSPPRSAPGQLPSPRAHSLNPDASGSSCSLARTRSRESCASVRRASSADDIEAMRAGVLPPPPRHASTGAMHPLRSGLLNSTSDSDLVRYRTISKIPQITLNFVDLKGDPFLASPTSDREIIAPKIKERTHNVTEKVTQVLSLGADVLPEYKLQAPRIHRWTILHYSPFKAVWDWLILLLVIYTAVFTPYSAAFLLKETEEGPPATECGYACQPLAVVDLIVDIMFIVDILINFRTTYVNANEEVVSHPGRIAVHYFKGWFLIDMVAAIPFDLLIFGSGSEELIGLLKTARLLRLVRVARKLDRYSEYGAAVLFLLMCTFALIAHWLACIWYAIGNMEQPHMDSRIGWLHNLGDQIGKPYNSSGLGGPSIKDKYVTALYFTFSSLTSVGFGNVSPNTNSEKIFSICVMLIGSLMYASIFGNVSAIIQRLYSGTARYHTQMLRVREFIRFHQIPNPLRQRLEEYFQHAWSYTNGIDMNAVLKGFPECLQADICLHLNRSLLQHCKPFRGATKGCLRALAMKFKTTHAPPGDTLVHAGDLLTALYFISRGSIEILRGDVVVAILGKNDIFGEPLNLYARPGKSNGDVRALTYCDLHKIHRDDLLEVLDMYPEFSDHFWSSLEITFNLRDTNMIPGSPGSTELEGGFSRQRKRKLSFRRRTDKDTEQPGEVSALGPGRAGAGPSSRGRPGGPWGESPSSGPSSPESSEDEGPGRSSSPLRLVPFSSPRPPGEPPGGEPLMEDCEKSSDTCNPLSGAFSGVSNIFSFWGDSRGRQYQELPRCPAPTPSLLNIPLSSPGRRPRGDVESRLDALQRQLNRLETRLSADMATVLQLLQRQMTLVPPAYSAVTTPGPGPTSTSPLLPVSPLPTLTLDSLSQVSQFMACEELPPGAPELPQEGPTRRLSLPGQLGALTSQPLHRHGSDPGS

[6] = Luminescence Cell-Based Dose Retest to Confirm Inhibitors of Cancer Stem Cells. [Related pubchem assays (depositor defined):AID2717, AID2721]; assay type: functional; settings: Homo sapiens
[7] = molecular target: Heat shock protein HSP 90-alpha (Homo sapiens, UniProt P07900); assay type: functional, organism-based
[8] = molecular target: Beta-galactosidase (Escherichia coli, UniProt Q8VNN2); test: PubChem AID 485352; assay type: functional
Sequence of Beta-galactosidase (Q8VNN2 whole entry): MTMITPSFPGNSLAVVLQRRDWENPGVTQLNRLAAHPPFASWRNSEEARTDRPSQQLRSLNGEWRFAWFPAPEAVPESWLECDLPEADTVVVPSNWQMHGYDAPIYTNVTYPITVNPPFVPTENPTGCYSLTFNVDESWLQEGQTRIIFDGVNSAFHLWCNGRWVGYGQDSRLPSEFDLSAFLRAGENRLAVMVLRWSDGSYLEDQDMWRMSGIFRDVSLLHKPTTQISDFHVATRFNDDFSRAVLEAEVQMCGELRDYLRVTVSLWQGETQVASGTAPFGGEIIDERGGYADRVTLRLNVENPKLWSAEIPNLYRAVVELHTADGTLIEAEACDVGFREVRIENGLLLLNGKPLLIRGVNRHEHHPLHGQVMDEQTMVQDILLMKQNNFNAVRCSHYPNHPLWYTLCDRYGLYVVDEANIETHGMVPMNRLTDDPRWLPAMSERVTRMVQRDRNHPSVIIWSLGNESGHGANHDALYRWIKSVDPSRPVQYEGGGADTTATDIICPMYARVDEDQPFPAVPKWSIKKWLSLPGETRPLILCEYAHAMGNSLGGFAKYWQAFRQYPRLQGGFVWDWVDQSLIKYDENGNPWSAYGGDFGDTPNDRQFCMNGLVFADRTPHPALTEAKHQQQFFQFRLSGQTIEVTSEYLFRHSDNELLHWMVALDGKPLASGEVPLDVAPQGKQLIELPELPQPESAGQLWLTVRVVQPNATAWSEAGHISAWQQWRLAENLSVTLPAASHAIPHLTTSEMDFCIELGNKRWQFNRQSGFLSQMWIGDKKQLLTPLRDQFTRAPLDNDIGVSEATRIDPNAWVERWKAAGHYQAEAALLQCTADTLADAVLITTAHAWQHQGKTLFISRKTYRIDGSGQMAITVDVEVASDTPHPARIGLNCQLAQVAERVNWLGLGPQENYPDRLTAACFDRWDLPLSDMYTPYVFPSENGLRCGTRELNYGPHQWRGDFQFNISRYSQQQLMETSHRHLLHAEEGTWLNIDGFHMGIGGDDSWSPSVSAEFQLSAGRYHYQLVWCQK

[9] = molecular target: Type-1 angiotensin II receptor (Homo sapiens, UniProt P30556); test: AT1 receptor antagonists, dose response, selectivity assay for APJ receptor antagonist project, cell-based, uHTS hits (AID 463214); assay type: functional;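 further: antagonist potency against angiotensin II stimulated AT1 response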
Sequence of Type-1 angiotensin II receptor (P30556 whole entry): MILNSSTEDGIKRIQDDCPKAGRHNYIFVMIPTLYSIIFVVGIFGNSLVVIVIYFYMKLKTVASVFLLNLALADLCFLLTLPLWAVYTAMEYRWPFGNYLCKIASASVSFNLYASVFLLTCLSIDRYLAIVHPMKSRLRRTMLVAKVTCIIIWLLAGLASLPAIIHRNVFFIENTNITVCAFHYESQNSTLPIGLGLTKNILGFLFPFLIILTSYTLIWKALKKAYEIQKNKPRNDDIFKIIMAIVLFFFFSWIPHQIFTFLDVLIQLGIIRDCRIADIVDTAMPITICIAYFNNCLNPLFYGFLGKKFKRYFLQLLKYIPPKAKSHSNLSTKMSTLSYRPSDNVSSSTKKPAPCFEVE

[10] = molecular target: T5, Short transient receptor potential channel 4 (Mus musculus, UniProt Q9QUQ5); test: mouse TRPC4 channel activators, dose response, cell-based, HEK293 TRPC4/mu-opioid, Fluo-4 calcium (AID 434937); assay type: functional
T5 sequence (Q9QUQ5 whole entry): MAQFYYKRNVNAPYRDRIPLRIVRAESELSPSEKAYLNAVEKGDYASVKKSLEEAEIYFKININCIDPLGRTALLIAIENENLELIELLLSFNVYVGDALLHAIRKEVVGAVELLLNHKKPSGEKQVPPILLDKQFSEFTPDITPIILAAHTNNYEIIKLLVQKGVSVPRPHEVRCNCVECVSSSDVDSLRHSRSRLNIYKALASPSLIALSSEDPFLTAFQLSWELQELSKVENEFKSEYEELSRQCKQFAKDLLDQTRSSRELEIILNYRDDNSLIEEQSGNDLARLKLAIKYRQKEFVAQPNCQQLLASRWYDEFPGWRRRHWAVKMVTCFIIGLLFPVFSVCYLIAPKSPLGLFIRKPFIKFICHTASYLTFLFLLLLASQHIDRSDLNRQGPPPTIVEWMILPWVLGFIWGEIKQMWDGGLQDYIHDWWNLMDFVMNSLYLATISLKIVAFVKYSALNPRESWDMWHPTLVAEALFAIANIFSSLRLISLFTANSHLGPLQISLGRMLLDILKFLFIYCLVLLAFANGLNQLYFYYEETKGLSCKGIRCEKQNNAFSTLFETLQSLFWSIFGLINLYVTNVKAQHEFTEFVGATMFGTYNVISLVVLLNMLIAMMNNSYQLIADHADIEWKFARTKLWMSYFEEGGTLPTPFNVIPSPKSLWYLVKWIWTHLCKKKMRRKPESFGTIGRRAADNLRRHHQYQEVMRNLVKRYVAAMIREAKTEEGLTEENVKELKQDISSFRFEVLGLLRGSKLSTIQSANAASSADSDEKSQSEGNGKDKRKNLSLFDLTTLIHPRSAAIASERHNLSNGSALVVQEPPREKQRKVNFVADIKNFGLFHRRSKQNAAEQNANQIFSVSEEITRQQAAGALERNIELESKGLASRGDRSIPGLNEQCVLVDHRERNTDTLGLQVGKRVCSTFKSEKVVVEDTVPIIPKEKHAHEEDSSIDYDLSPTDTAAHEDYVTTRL

[11] = molecular target: Delta-type opioid receptor (Homo sapiens, UniProt P41143); test: Counterscreen for agonists of heterodimerization of the mu 1 (OPRM1) and delta 1 (OPRD1) opioid receptors: Luminescence-based cell-based high throughput dose response assay to identify agonists of OPRD1 homodimerization. [Related pubchem assays (depositor defined):AID504326, AID504355, AID504692, AID504904, AID504905]; assay type: functional
[12] = molecular target: Mu-type opioid receptor (Homo sapiens, UniProt P35372); test: Counterscreen for agonists of heterodimerization of the mu 1 (OPRM1) and delta 1 (OPRD1) opioid receptors: Luminescence-based cell-based high throughput dose response assay to identify agonists of OPRM1 homodimerization.; assay type: functional;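 further: U2OS cells expressing OPRM1 and beta-arrestin as split beta-galactosidase partners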
Sequence of Mu-type opioid receptor (P35372 whole entry): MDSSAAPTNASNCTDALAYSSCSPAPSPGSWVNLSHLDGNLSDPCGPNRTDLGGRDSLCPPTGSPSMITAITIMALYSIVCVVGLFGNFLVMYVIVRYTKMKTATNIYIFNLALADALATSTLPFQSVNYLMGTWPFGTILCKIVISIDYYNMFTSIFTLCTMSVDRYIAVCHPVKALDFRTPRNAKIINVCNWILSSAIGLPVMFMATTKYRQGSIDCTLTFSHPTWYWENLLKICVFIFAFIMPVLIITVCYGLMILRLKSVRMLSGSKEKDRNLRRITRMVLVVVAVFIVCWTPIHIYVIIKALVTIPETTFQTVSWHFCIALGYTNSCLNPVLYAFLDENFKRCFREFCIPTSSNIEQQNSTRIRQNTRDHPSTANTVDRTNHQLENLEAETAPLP

[13] = molecular target: 5-hydroxytryptamine receptor 5A (Homo sapiens, UniProt P47898); test: Counterscreen for agonists of OPRM1-OPRD1 heterodimerization: luminescence-based cell-based high throughput dose response assay to identify agonists of 5-hydroxytryptamine (serotonin) 5A receptor (HTR5A). [Related pubchem assays (depositor defined):AID504326, AID504355, AID504692, AID504904, AID504905]; assay type: functional
Sequence of 5-hydroxytryptamine receptor 5A (P47898 whole entry): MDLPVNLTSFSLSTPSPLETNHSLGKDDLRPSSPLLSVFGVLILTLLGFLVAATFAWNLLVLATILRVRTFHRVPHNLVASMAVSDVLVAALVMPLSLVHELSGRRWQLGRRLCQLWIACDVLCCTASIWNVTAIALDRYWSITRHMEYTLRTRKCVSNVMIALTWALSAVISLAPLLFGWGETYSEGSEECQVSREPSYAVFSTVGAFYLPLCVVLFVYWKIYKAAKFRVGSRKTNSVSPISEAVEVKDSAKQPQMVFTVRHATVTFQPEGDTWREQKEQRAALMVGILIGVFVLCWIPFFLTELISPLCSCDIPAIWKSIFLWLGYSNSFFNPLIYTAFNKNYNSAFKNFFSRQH

[14] = test system: Escherichia coli; test: microbe, parasite or virus in culture
[15] = test system: Escherichia coli; test: microbe, parasite or virus in culture; remark: listed apart in the source
[16] = molecular target: T5, Short transient receptor potential channel 4; test: mouse TRPC4 channel inhibitors, dose response, cell-based, HEK293 TRPC4/mu-opioid, Fluo-4 calcium (AID 434942); assay type: functional;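 further: potency of inhibitors blocking the TRPC4 calcium response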
[17] = test system: Vero; test: Vero cell cytotoxicity, cytotoxicity control for flavivirus capping enzyme inhibitors (AID 588742); assay type: functional; settings: Chlorocebus sabaeus
[18] = molecular target: Genome polyprotein (dengue virus type 2, UniProt P29990); test: Dengue-2 NS5 methyltransferase inhibitors, primary screen, biochemical, confirmation dose response (AID 588689); assay type: functional
Sequence of Genome polyprotein (P29990 2492-3391 limits assumed): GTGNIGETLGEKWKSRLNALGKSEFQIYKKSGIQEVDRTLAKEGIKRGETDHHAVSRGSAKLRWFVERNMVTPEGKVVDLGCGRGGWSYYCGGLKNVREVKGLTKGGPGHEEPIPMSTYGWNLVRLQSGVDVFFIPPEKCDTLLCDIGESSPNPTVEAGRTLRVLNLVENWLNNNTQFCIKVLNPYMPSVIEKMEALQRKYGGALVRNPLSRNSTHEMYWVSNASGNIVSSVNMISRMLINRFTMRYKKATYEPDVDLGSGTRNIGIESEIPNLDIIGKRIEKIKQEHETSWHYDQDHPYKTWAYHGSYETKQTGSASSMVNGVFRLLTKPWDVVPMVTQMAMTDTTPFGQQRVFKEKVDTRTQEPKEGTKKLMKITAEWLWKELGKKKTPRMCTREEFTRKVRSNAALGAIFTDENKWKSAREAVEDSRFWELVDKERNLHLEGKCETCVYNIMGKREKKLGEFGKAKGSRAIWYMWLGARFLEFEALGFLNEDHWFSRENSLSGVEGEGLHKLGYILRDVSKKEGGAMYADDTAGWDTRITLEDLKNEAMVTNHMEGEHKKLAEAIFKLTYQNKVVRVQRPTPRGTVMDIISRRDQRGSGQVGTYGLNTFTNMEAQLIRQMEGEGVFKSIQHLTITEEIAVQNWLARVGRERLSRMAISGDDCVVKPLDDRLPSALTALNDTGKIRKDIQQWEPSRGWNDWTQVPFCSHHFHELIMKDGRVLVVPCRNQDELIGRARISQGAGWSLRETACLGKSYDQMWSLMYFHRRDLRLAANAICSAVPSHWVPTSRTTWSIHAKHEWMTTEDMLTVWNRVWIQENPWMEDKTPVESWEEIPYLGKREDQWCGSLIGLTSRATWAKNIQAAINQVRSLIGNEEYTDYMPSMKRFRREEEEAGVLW

[19] = molecular target: Photoreceptor-specific nuclear receptor (Homo sapiens, UniProt Q9Y5X4); assay type: functional, cell-based;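 further: CHO-S cells with Gal4-NCOR and VP16-NR2E3 two-hybrid luciferase reporter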
[20] = molecular target: Cysteine protease ATG4B (Homo sapiens, UniProt Q9Y4P1); assay type: functional;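 further: Fluorescence-based dose-response confirmation assay measuring inhibition of ATG4B activity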
Sequence of Cysteine protease ATG4B (Q9Y4P1 whole entry): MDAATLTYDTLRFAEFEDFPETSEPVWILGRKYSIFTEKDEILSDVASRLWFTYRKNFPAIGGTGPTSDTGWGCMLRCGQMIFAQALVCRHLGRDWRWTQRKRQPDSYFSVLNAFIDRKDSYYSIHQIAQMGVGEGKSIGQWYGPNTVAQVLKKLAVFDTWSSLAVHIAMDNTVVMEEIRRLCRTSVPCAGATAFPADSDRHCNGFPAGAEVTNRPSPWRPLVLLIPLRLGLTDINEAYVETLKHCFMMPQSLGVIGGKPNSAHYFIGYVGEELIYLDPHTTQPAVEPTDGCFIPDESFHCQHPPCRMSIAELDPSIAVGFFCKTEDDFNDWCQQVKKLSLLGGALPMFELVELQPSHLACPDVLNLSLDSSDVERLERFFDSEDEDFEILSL

[21] = molecular target: Phospholipase A2 (Homo sapiens, UniProt P04054); assay type: functional;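 further: confirmatory dose-response counterscreen on phospholipase A2, testing hits that came from an ultra-high-throughput screen for ATG4B inhibitors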
Sequence of Phospholipase A2 (P04054 whole entry): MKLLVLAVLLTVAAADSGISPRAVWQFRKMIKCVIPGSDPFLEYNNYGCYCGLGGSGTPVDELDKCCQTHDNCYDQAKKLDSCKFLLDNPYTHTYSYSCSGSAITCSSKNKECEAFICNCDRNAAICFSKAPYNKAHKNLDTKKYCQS

O=C(Nc1nc2c(Cl)cccc2s1)C1COc2ccccc2O1 (configuration not stated)
IC50 [1]: > 99 µM (inactive) | IC50 [2]: > 99 µM (inactive) | IC50 [3]: > 99 µM (inactive) | IC50 [4]: 79.7 µM (active)

Cc1sc2ccccc2c1CC1=NCCN1
AC50 [5]: 35.5 µM (inconclusive)

CC[C@@H]1Cc2cc(O)ccc2C2=C1c1ccc(O)cc1C[C@H]2CC
AC50 [6]: 2.36 µM (active) | AC50 [7]: 6.32 µM (active) | AC50 [5]: 25.1 µM (inconclusive)

O=C(Nc1nc2ccc(Cl)cc2s1)c1cc2ccccc2o1
IC50 [1]: > 99 µM (inactive) | IC50 [2]: > 99 µM (inactive) | IC50 [3]: > 99 µM (inactive) | IC50 [4]: > 99 µM (inactive)

Cc1ccc(C(=O)NCC(=O)OCC(=O)c2ccc(C)c([N+](=O)[O-])c2)cc1
EC50 [8]: > 40 µM (inactive) | IC50 [9]: 36.4 µM (not active)

CCOC(=O)C1(CC2CCCCO2)CCN(Cc2cc(F)ccc2-n2cccn2)CC1 (configuration not stated)
EC50 [10]: 0.473 µM (active) | EC50 [11]: > 92.5 µM (inactive) | EC50 [12]: > 92.5 µM (inactive) | EC50 [13]: > 92.5 µM (inactive)

COCCCn1c(SCCc2ccccc2)nc2cc(OC)c(OC)cc2c1=N
AC50 [14]: 51.3 µM (active) | AC50 [15]: 37.6 µM (active)

OCC1(Cc2ccc(Cl)cc2)CCN(Cc2ccccc2F)CC1
EC50 [16]: 5.96 µM (active) | AC50 [14]: 21.9 µM (active) | AC50 [15]: 88.9 µM (active)

Cc1ccc(S(=O)(=O)N2[C@@H](c3ccc(Cl)c(Cl)c3)C(C(=O)O)=C[C@H]2CC2CCCC2)cc1
CC50 [17]: > 40 µM (active) | IC50 [18]: 43.4 µM (active) | IC50 [19]: 6.21 µM (active)

O=C(CNCC1CCCCC1)Nc1ccccc1N1CCCCC1
IC50 [20]: 10.8 µM (active) | IC50 [21]: 9.35 µM (active)

CSc1cccc(N=C2C(=O)Nc3ccccc32)c1
EC50 [8]: > 40 µM (inactive) | IC50 [9]: > 40 µM (not active)

COC(=O)c1sc(N(C)C)c(C#N)c1-c1ccccc1
IC50 [20]: 12.4 µM (active) | IC50 [21]: 8.76 µM (active)

— ChEMBL document CHEMBL1201862, “PubChem BioAssay data set” (2004)
